From article PMC10835127, “Viruses traverse the human proteome through peptide interfaces that can be biomimetically leveraged for drug discovery” (Proceedings of the National Academy of Sciences of the …, 2024) come the findings set out here.

Experiment [1] relates to F. novicida (strain U112). The experiment is classed as cell-based.
Another experiment relates to influenza A H1N1 virus. To be noted: 48 hr post-treatment, A549.
In another experiment the test system is HCV replicon. Format: cell-based.
The subject of a further experiment is HIV1 strain NL4-3. Format: cell-based.
The mark [2] stands for this setting: normalized mean of EBV replication readout.
[3] abbreviates: normalized mean of HCV replicon readout.
Where [4] appears, read: normalized mean of HIV1 replication readout.
The mark [5] stands for this setting: normalized mean of EBV replication readout, peptide screen.
[6] abbreviates: normalized mean of HCV replicon readout, peptide screen.
Setting [7] is: normalized mean of HIV1 replication readout, peptide screen.

Where two headings read alike, the source gives them in different places.

Take AAAVAFL [CPEP117]: the “Francisella novicida Norm AUC” value in experiment [1] is given as 0.9738. Also, the “Neuraminidase activity normalized to vehicle” value is 0,72 in the experiment with influenza A H1N1 virus (200 µM peptide); 0,8345 in the experiment on influenza A H1N1 virus (0,823 µM peptide); 0,8782 in the experiment with influenza A H1N1 virus (22,2 µM peptide); 0,8234 in the experiment with influenza A H1N1 virus (2,4691 µM peptide); 0,8773 in the experiment on influenza A H1N1 virus (7,4074 µM peptide); 0,8792 with influenza A H1N1 virus (66,6667 µM peptide). The “EBV Norm MEAN” value with EBV (setting [2]) is reported as 1.118. Also, in the experiment with HCV replicon (setting [3]), the “HCV Norm MEAN” value was 0.1615. Besides, in the experiment on HIV1 strain NL4-3 (setting [4]), the “HIV1 Norm MEAN” value came out at 0.6808.
As for ACTNCYCKKCCFHCQVC [CPEP100], the “Francisella novicida Norm AUC” value in experiment [1] was determined as 1.04. For the same substance, the “Neuraminidase activity normalized to vehicle” value in the experiment with influenza A H1N1 virus (200 µM peptide) was 1,0893; in the experiment on influenza A H1N1 virus (0,823 µM peptide) it was 1,092; in the experiment with influenza A H1N1 virus (22,2 µM peptide), 1,1329; with influenza A H1N1 virus (2,4691 µM peptide) it was 0,9938; in the experiment on influenza A H1N1 virus (7,4074 µM peptide) it was 1,0674; with influenza A H1N1 virus (66,6667 µM peptide) it was 1,0274. Also, the “EBV Norm MEAN” value in the experiment on EBV (setting [5]) worked out at 1.687. In addition, in the experiment on HCV replicon (setting [6]), the “HCV Norm MEAN” value is 0.4928. Further, the “HIV1 Norm MEAN” value with HIV1 strain NL4-3 (setting [7]) was determined as 0.1546.
For AHQNSQTHQASLSKQ [CPEP43], the “Francisella novicida Norm AUC” value in experiment [1] is 1.137. The “Neuraminidase activity normalized to vehicle” value with influenza A H1N1 virus (200 µM peptide) is 0,8034; in the experiment on influenza A H1N1 virus (0,823 µM peptide), 0,7858; in the experiment with influenza A H1N1 virus (22,2 µM peptide), 0,9843; in the experiment on influenza A H1N1 virus (2,4691 µM peptide), 0,876; with influenza A H1N1 virus (7,4074 µM peptide) it was 0,8511; in the experiment on influenza A H1N1 virus (66,6667 µM peptide), 0,7841. For the same substance, in the experiment with EBV (setting [5]), the “EBV Norm MEAN” value was 0.682. For the same substance, the “HCV Norm MEAN” value in the experiment on HCV replicon (setting [6]) is on record as 1.077. Moreover, the “HIV1 Norm MEAN” value in the experiment on HIV1 strain NL4-3 (setting [7]) amounted to 0.3977.
For the substance ARARALARGAGPANSV [CPEP47], the “Francisella novicida Norm AUC” value in experiment [1] stood at 0.949. Further, the “Neuraminidase activity normalized to vehicle” value was 1,0179 with influenza A H1N1 virus (200 µM peptide); 1,0745 with influenza A H1N1 virus (0,823 µM peptide); 1,1923 in the experiment on influenza A H1N1 virus (22,2 µM peptide); 1,0399 in the experiment with influenza A H1N1 virus (2,4691 µM peptide); 1,1089 in the experiment on influenza A H1N1 virus (7,4074 µM peptide); 1,0424 in the experiment on influenza A H1N1 virus (66,6667 µM peptide). For the same substance, the “EBV Norm MEAN” value in the experiment on EBV (setting [5]) turned out to be 1.295. In addition, the “HCV Norm MEAN” value in the experiment on HCV replicon (setting [6]) is 1.1445. The “HIV1 Norm MEAN” value with HIV1 strain NL4-3 (setting [7]) is recorded as 2.79.
CMSCCRSSRTRRETQL [CPEP57]: the “Francisella novicida Norm AUC” value in experiment [1] was 0.5573. Besides, the “Neuraminidase activity normalized to vehicle” value is reported as 0,9828 in the experiment with influenza A H1N1 virus (200 µM peptide); 1,0672 with influenza A H1N1 virus (0,823 µM peptide); 1,1821 in the experiment on influenza A H1N1 virus (22,2 µM peptide); 0,702 with influenza A H1N1 virus (2,4691 µM peptide); 1,111 in the experiment with influenza A H1N1 virus (7,4074 µM peptide); 0,9599 in the experiment on influenza A H1N1 virus (66,6667 µM peptide). The “EBV Norm MEAN” value in the experiment on EBV (setting [5]) worked out at 0.8928. Also, the “HCV Norm MEAN” value with HCV replicon (setting [6]) was 0.7555. Further, in the experiment on HIV1 strain NL4-3 (setting [7]), the “HIV1 Norm MEAN” value is 1.032.
On to “CPEP14: peptide of the viral peptide library; sequence page not shown (ILHTPGCVPCVR)”, for which the “Francisella novicida Norm AUC” value in experiment [1] is reported as 1.22. Further, the “Neuraminidase activity normalized to vehicle” value in the experiment with influenza A H1N1 virus (200 µM peptide) is listed as 0,9254; with influenza A H1N1 virus (0,823 µM peptide), 0,9272; in the experiment on influenza A H1N1 virus (22,2 µM peptide), 1,0033; in the experiment on influenza A H1N1 virus (2,4691 µM peptide), 0,9392; in the experiment with influenza A H1N1 virus (7,4074 µM peptide), 0,9017; in the experiment on influenza A H1N1 virus (66,6667 µM peptide) it was 1,0554. Also, the “EBV Norm MEAN” value in the experiment with EBV (setting [2]) came out at 1.5484. The “HCV Norm MEAN” value in the experiment on HCV replicon (setting [3]) stood at 0.5608. Also, the “HIV1 Norm MEAN” value with HIV1 strain NL4-3 (setting [4]) is 0.4683.
With “CPEP52: peptide of the viral peptide library; sequence page not shown (CFITKALGISYG)”, the “Francisella novicida Norm AUC” value in experiment [1] worked out at 2.021. The “Neuraminidase activity normalized to vehicle” value with influenza A H1N1 virus (200 µM peptide) is 0,1673; with influenza A H1N1 virus (0,823 µM peptide) it was 0,9576; with influenza A H1N1 virus (22,2 µM peptide), 1,0146; in the experiment on influenza A H1N1 virus (2,4691 µM peptide), 1,1215; in the experiment with influenza A H1N1 virus (7,4074 µM peptide), 0,9392; in the experiment on influenza A H1N1 virus (66,6667 µM peptide), 0,5319. In addition, the “EBV Norm MEAN” value in the experiment with EBV (setting [2]) amounted to 2.225. In addition, in the experiment on HCV replicon (setting [3]), the “HCV Norm MEAN” value was 0.3655. For the same substance, in the experiment on HIV1 strain NL4-3 (setting [4]), the “HIV1 Norm MEAN” value is 5.563.
With “CPEP61: peptide of the viral peptide library; sequence page not shown (KRRKSGAKRR)”, the “Francisella novicida Norm AUC” value in experiment [1] is recorded as 0.6493. Moreover, the “Neuraminidase activity normalized to vehicle” value in the experiment on influenza A H1N1 virus (200 µM peptide) is on record as 0,867; in the experiment with influenza A H1N1 virus (0,823 µM peptide), 1,0166; with influenza A H1N1 virus (22,2 µM peptide), 1,0577; with influenza A H1N1 virus (2,4691 µM peptide) it was 1,0813; with influenza A H1N1 virus (7,4074 µM peptide) it was 0,9769; with influenza A H1N1 virus (66,6667 µM peptide), 1,1022. In the experiment with EBV (setting [2]), the “EBV Norm MEAN” value is 3.372. The “HCV Norm MEAN” value with HCV replicon (setting [3]) was determined as 0.1619. Also, the “HIV1 Norm MEAN” value in the experiment with HIV1 strain NL4-3 (setting [4]) was found to be 1.461.
On to “CPEP63: peptide of the viral peptide library; sequence page not shown (KARHKRRNRSSRS)”, for which the “Francisella novicida Norm AUC” value in experiment [1] worked out at 1.1166. In addition, the “Neuraminidase activity normalized to vehicle” value in the experiment on influenza A H1N1 virus (200 µM peptide) is listed as 0,8323; in the experiment with influenza A H1N1 virus (0,823 µM peptide), 0,6161; in the experiment with influenza A H1N1 virus (22,2 µM peptide) it was 0,9172; in the experiment on influenza A H1N1 virus (2,4691 µM peptide) it was 1; in the experiment on influenza A H1N1 virus (7,4074 µM peptide) it was 0,9177; in the experiment with influenza A H1N1 virus (66,6667 µM peptide), 0,9488. The “EBV Norm MEAN” value in the experiment with EBV (setting [2]) is reported as 1.249. Moreover, the “HCV Norm MEAN” value in the experiment on HCV replicon (setting [3]) was 0.5995. For the same substance, the “HIV1 Norm MEAN” value in the experiment with HIV1 strain NL4-3 (setting [4]) worked out at 0.7086.
On to “CPEP64: peptide of the viral peptide library; sequence page not shown (CCFHCQVCFIT)”, for which, in experiment [1], the “Francisella novicida Norm AUC” value worked out at 0.8687. The “Neuraminidase activity normalized to vehicle” value in the experiment with influenza A H1N1 virus (200 µM peptide) is recorded as 0,0708; with influenza A H1N1 virus (0,823 µM peptide), 0,8369; in the experiment on influenza A H1N1 virus (22,2 µM peptide), 0,1905; in the experiment on influenza A H1N1 virus (2,4691 µM peptide), 0,9654; with influenza A H1N1 virus (7,4074 µM peptide), 0,5226; with influenza A H1N1 virus (66,6667 µM peptide), 0,0909. For the same substance, the “EBV Norm MEAN” value with EBV (setting [2]) was determined as 0.8807. The “HCV Norm MEAN” value in the experiment with HCV replicon (setting [3]) was 1.72. Besides, the “HIV1 Norm MEAN” value in the experiment on HIV1 strain NL4-3 (setting [4]) is on record as 8.487.
As for “CPEP69: peptide of the viral peptide library; sequence page not shown (MRHIICHGGVITEE)”, the “Francisella novicida Norm AUC” value in experiment [1] stood at 1.041. Besides, the “Neuraminidase activity normalized to vehicle” value in the experiment on influenza A H1N1 virus (200 µM peptide) was 1,1006; with influenza A H1N1 virus (0,823 µM peptide), 0,9574; with influenza A H1N1 virus (22,2 µM peptide), 1,0597; in the experiment on influenza A H1N1 virus (2,4691 µM peptide), 1,0075; in the experiment with influenza A H1N1 virus (7,4074 µM peptide), 1,0635; in the experiment on influenza A H1N1 virus (66,6667 µM peptide), 1,1613. The “EBV Norm MEAN” value in the experiment with EBV (setting [5]) is listed as 0.4275. Also, in the experiment on HCV replicon (setting [6]), the “HCV Norm MEAN” value came out at 0.5472. In addition, the “HIV1 Norm MEAN” value with HIV1 strain NL4-3 (setting [7]) is 0.7189.
As for PEPTAPPEE [CPEP147], the “Francisella novicida Norm AUC” value in experiment [1] is given as 1.176. The “EBV Norm MEAN” value in the experiment with EBV came to 0.5114. Also, in the experiment on HCV replicon, the “HCV Norm MEAN” value is recorded as 1.15. Further, the “HIV1 Norm MEAN” value in the experiment with HIV1 strain NL4-3 is recorded as 0.3632.
